Test system: platelet count
Assay: Platelet count (thrombocytopenia / platelet protection) after administration of liposomal formulations or free drug
Type: in vivo, Female B6D2F1/J mice
Settings: liposomal formulations at various doses or free drug, FIG. 7F
Procedure: Female B6D2F1/J mice were purchased from Jackson Laboratory and acclimated 7 days prior to study start. Mice were caged in autoclaved Allentown ventilated caging at a capacity of 3 animals/cage during the course of the experiment. Cages were changed bi-weekly. Environmental enrichment that was supplied for cages were Nestlets from Ancare, transparent tinted polycarbonate Mouse Igloos from Bio-Serv on Envigo 7097¼″ corn cob bedding. All enrichment was added to the cage prior to the cages being autoclaved. Mice were fed Envigo Teklad Global Rodent Diet 2018. The rodent food was kept in the hoppers of the wire lids and was changed bi-weekly. Reverse osmosis water was supplied through Avidity Science automatic watering valves at a flow rate of 25-50 ml/min. Environmental control of the lights and monitoring of temperature, humidity and airflow was done by WatchDog. Light cycles in the animal holding rooms was set for 12 hours on and 12 hours off. Temperature, humidity and airflow were maintained and controlled by BCCRC facilities.
Mice were injected with the required volume to administer the prescribed dose (10 mg/kg) to the animals based on individual mouse weights using a 28 G needle. The injection volume was 200 μL/20 g mouse. The mice were briefly (less than 30 sec.) restrained during i.v. injections. […]

## CN(C)CC[C@H](CSc1ccccc1)Nc1ccc(S(=O)(=O)NC(=O)c2ccc(N3CCN(Cc4ccccc4-c4ccc(Cl)cc4)CC3)cc2)cc1[N+](=O)[O-] [Compound 7]
  tolerability (platelet count): well tolerated at the tested doses

From patent US12447163B2, “Liposomal formulations of Bcl inhibitors” (Jazz Pharmaceuticals Therapeutics, Inc., priority 2021, dated 2025)
